This is an account of results in patent publication US20080090728A1, “Method for Improving Plant Growth” (BAYER CROPSCIENCE AG, priority 2004, published 2008).

Molecules are shown by their SMILES.

The subject of one test is insect infestation. Description: Field trial, bonitation of insect infestation (defoliation by insect damage) on Eucalyptus seedlings. It is filed as in vivo. An excerpt:
(§1) A synergistic effect is always present when the growth effect of the combinations according to the invention exceed the total of the activities of the active compounds when applied individually. The expected activity for a given combination of two active compounds can be calculated as follows (cf. Colby, S.R., “Calculating Synergistic and Antagonistic Responses of Herbicide Combinations”, Weeds 15, (1967), 20-22): If • X is the growth effect when applying one compound selected from the class of agonists and antagonists of the nicotinic acetylcholine receptors at an application rate of m g/ha, • Y is the growth effect when applying fertilizer at an application rate of n g/ha and • E is the efficacy when applying the combination of A and B at an application rate of m and n g/ha, then [formula] The efficacy is calculated in %. 0% is an efficacy which corresponds to that of the control. If the actual growth effect exceeds the calculated value, then the activity of the combination is super additive, i.e. a synergistic effect exists. In this case, the efficacy which was actually observed must be greater than the value for the expected efficacy (E) calculated from the abovementioned formula. The trial was established using a Latin square design (4 treatments with 4 replications each) with 49 ligneous trees per plot for a total of 784 trees in the trial. Trees: Eucalyptus seedlings (E. globulus) The four treatments used were 1) control (nil treatment) 2) fertilizer only 3) insecticide (i.e. imidacloprid) only 4) insecticide (i.e. imidacloprid) plus fertilizer Bonitation of insect infestation and measurement of the height of the treated trees was done 7 months and 12 months after the trial has been started (start of trial: August 2003, bonitations: March 2004 and August 2004) All results are statistically evaluated having a significance level of 5% . Besides the mean value comparison the Fisher's PLSD test has been applied.

The subject of test [1] is Eucalyptus seedlings (E. globulus). In words: Field trial, height of treated Eucalyptus seedlings (growth effect). The note with it: for Average height (cm): E. globulus seedlings. In kind it is in vivo.
Source text: as §1

The mark [2] stands for this setting: Bonitation August 2004, 12 months after start of trial.
The mark [3] stands for this setting: Bonitation March 2004, 7 months after start of trial.

As to `O=[N+]([O-])NC1=NCCN1Cc1ccc(Cl)nc1` [imidacloprid only, Imidacloprid], in the test with insect infestation (setting [2]), the “Average defoliation by insect damage (%)” value is recorded as 60% and the “Efficacy according to Abbott (%)” value was 40%. In addition, in the test on insect infestation (setting [3]), the “Average defoliation by insect damage (%)” value is given as 18% and the “Efficacy according to Abbott (%)” value is listed as 71%. Moreover, in test [1] (setting [2]), the “Height of tree (% of control)” value is given as 104 % of control and the “Average height (cm)” value worked out at 125 cm. Moreover, in test [1] (setting [3]), the “Height of tree (% of control)” value is 115 % of control and the “Average height (cm)” value worked out at 86 cm.
